The numbers were not newly measured in patent publication US20230174569A1, “PROCESS PER PREPARING (3a,5a)-20-OXOPREGNAN-3-YL GLYCYL-L-VALINATE HYDROCHLORIDE” ([…] S.R.L., priority 2021, published 2023), which cites them from elsewhere.

The conditions of data set [1]: compared with Brexanolone.
For data set [2] the following is noted: compared with Brexanolone. The source holds these as a separate data set.

Molecules are shown by their SMILES. Where a name gives a salt, the structure may show the parent alone.

In the case of `CC(=O)[C@H]1CC[C@H]2[C@@H]3CC[C@H]4C[C@H](OC(=O)[C@@H](NC(=O)CN)C(C)C)CC[C@]4(C)[C@H]3CC[C@]12C` [compound I, (3α,5α)-20-oxopregnan-3-yl glycyl-L-valinate hydrochloride], the water solubility result in data set [1] is on record as “better profile than Brexanolone”. The “storage stability in aqueous solutions” value in data set [2] is given as “better profile than Brexanolone”.
